Measured values reported in US8178570B2, “Tie-2 modulators and methods of use” (Exelixis, Inc., priority 2003, dated 2012).

Biological target: Tie-2 (Homo sapiens, UniProt Q02763)
Test: Tie-2 tyrosine kinase activity: kinase-dependent ATP consumption (pEY substrate, luciferase/luciferin chemiluminescence) or 33P-ATP incorporation into substrate
Assay type: biochemical
Details: Tie-2 (human enzyme) inhibition, Table 2, class symbols A-D
Outline: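 Tie-2 kinase activity is read either as ATP consumption with pEY substrate by luciferase/luciferin chemiluminescence, or as 33P incorporation from 33P-ATP into plate-adsorbed substrate by scintillation counting. IC50 values are binned as A <50 nM, B >50–1000 nM, C >1000–<10,000 nM, and D ≥10,000 nM.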

Tie-2, sequence (Q02763 23-1124): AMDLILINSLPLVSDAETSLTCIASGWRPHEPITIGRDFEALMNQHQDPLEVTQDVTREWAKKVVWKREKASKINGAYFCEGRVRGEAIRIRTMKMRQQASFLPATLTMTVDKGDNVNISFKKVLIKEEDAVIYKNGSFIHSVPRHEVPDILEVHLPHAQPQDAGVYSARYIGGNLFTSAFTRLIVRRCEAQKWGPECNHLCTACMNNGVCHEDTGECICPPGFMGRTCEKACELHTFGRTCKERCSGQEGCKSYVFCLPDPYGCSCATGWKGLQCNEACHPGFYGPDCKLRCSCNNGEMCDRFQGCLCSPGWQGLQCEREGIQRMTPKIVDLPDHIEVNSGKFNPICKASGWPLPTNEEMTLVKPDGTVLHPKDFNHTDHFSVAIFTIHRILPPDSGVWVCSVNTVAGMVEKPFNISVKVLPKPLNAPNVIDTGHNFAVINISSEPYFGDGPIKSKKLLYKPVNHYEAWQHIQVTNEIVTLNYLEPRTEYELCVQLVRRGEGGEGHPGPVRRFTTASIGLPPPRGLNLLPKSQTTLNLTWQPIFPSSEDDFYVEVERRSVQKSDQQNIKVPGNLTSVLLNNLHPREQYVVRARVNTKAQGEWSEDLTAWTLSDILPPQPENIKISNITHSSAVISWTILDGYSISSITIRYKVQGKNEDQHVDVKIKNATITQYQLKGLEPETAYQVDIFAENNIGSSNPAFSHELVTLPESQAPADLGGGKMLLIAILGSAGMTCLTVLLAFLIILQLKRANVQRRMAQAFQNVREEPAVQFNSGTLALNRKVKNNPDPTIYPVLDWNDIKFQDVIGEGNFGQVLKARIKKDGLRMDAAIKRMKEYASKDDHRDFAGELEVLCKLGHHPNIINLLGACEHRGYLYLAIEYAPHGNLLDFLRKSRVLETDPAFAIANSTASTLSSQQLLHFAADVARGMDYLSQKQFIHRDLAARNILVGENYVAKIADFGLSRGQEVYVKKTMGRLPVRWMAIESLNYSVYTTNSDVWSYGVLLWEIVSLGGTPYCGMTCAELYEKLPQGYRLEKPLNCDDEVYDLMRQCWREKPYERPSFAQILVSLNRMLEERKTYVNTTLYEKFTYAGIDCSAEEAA

Row | SMILES | IC50
1 | CNc1cc(-c2nc(C)n(CCN(C(=O)Cc3cccc4ccccc34)C3CCCC3)n2)ccn1 [Entry 167, N-cyclopentyl-N-(2-{5-methyl-3-[2-(methylamino)pyridin-4-yl]-1H-1,2,4-triazol-1-yl}ethyl)-2-naphthalen-1-ylacetamide] | < 0.05 µM
2 | COc1ccc(-c2nc(-c3ccncc3)nn2CCN(C(=O)N[C@@H](C)c2ccccc2)C2CCCC2)cc1Cl [Entry 125, N-(2-{5-[3-chloro-4-(methyloxy)phenyl]-3-pyridin-4-yl-1H-1,2,4-triazol-1-yl}ethyl)-N-cyclopentyl-N′-[(1S)-1-phenylethyl]urea] | 1 to 10 µM
3 | COC(=O)CCn1nc(-c2ccncc2)nc1-c1ccc(OC)c(Cl)c1 [Entry 6, methyl 3-{5-[3-chloro-4-(methyloxy)phenyl]-3-pyridin-4-yl-1H-1,2,4-triazol-1-yl}propanoate] | ≥ 10 µM
4 | COc1ccc(-c2nc(-c3ccncc3)nn2CCN(C(=O)Cc2cccc3ccccc23)C2CC2)cc1Cl [Entry 78, N-(2-{5-[3-chloro-4-(methyloxy)phenyl]-3-pyridin-4-yl-1H-1,2,4-triazol-1-yl}ethyl)-N-cyclopropyl-2-naphthalen-1-ylacetamide] | < 0.05 µM
5 | Cc1nc(-c2ccncc2)nn1CCN(CC1CCCO1)C(=O)Cc1cccc2ccccc12 (stereo not shown) [Entry 180, N-[2-(5-methyl-3-pyridin-4-yl-1H-1,2,4-triazol-1-yl)ethyl]-2-naphthalen-1-yl-N-(tetrahydrofuran-2-ylmethyl)acetamide] | 0.05 to 1 µM
6 | O=C(Cc1cccc2ccccc12)N(CCn1nc(-c2ccncc2)nc1-c1cccc(Br)c1)C1CCCC1 [Entry 65, N-{2-[5-(3-bromophenyl)-3-pyridin-4-yl-1H-1,2,4-triazol-1-yl]ethyl}-N-cyclopentyl-2-naphthalen-1-ylacetamide] | < 0.05 µM
7 | COc1ccc(-c2nc(-c3ccncc3)nn2CCN(C(=O)Nc2ccc(F)cc2)C2CCCC2)cc1Cl [Entry 90, N-(2-{5-[3-chloro-4-(methyloxy)phenyl]-3-pyridin-4-yl-1H-1,2,4-triazol-1-yl}ethyl)-N-cyclopentyl-N′-(4-fluorophenyl)urea] | ≥ 10 µM
8 | COc1ccc(-c2nc(-c3ccncc3)n(CCN(C(=O)c3ccccc3)C3CCCC3)n2)cc1Cl [Entry 27, N-(2-{3-[3-chloro-4-(methyloxy)phenyl]-5-pyridin-4-yl-1H-1,2,4-triazol-1-yl}ethyl)-N-cyclopentylbenzamide] | ≥ 10 µM
9 | O=C(Cc1cccc2ccccc12)N(CCn1nc(-c2ccccc2Cl)nc1-c1ccncc1)C1CCCC1 [Entry 62, N-{2-[3-(2-chlorophenyl)-5-pyridin-4-yl-1H-1,2,4-triazol-1-yl]ethyl}-N-cyclopentyl-2-naphthalen-1-ylacetamide] | 1 to 10 µM
10 | COc1ccc(-c2nc(-c3ccccc3)nn2CCN(C(=O)Cc2cccc3ccccc23)C2CCCC2)cc1Cl [Entry 32, N-(2-{5-[3-chloro-4-(methyloxy)phenyl]-3-phenyl-1H-1,2,4-triazol-1-yl}ethyl)-N-cyclopentyl-2-naphthalen-1-ylacetamide] | ≥ 10 µM
11 | COc1ccc(-c2nc(-c3ccncc3)n(CCN(C(=O)Cc3cccc4ccccc34)C3CCCCC3)n2)cc1Cl [Entry 37, N-(2-{3-[3-chloro-4-(methyloxy)phenyl]-5-pyridin-4-yl-1H-1,2,4-triazol-1-yl}ethyl)-N-cyclohexyl-2-naphthalen-1-ylacetamide] | 0.05 to 1 µM
12 | COc1ccc(-c2nc(-c3ccncc3)nn2CCN(C(=O)Nc2cc(Cl)ccc2C)C2CCCC2)cc1Cl [Entry 149, N-(2-{5-[3-chloro-4-(methyloxy)phenyl]-3-pyridin-4-yl-1H-1,2,4-triazol-1-yl}ethyl)-N′-(5-chloro-2-methylphenyl)-N-cyclopentylurea] | 1 to 10 µM
13 | COc1ccc(-c2nc(-c3ccncc3)nn2CCN(C(=O)Nc2cc(Cl)ccc2OC)C2CCCC2)cc1Cl [Entry 142, N′-[5-chloro-2-(methyloxy)phenyl]-N-(2-{5-[3-chloro-4-(methyloxy)phenyl]-3-pyridin-4-yl-1H-1,2,4-triazol-1-yl}ethyl)-N-cyclopentylurea] | ≥ 10 µM
14 | COc1ccc(-c2nc(-c3ccncc3)nn2CCN(C(=O)Nc2cc(F)ccc2C)C2CCCC2)cc1Cl [Entry 158, N-(2-{5-[3-chloro-4-(methyloxy)phenyl]-3-pyridin-4-yl-1H-1,2,4-triazol-1-yl}ethyl)-N-cyclopentyl-N′-(5-fluoro-2-methylphenyl)urea] | 1 to 10 µM
15 | COCCNc1cc(-c2nc(C)n(CCN(C(=O)Cc3cccc4ccccc34)C3CCCC3)n2)ccn1 [Entry 175, N-cyclopentyl-N-{2-[5-methyl-3-(2-{[2-(methyloxy)ethyl]amino}pyridin-4-yl)-1H-1,2,4-triazol-1-yl]ethyl}-2-naphthalen-1-ylacetamide] | < 0.05 µM
16 | COc1ccc(-c2nc(-c3ccnc(Cl)c3)nn2CCN(C(=O)Cc2cccc3ccccc23)C2CCCC2)cc1Cl [Entry 53, N-{2-[5-[3-chloro-4-(methyloxy)phenyl]-3-(2-chloropyridin-4-yl)-1H-1,2,4-triazol-1-yl]ethyl}-N-cyclopentyl-2-naphthalen-1-ylacetamide] | ≥ 10 µM

Row | SMILES | IC50
17 | CCc1nc(-c2ccncc2)nn1CCN(C(=O)Cc1cccc2ccccc12)C1CCCC1 [Entry 80, N-cyclopentyl-N-[2-(5-ethyl-3-pyridin-4-yl-1H-1,2,4-triazol-1-yl)ethyl]-2-naphthalen-1-ylacetamide] | < 0.05 µM
18 | COc1ccc(-c2nc(-c3ccncc3)nn2CCN(C(=O)Nc2ccccc2C(F)(F)F)C2CCCC2)cc1Cl [Entry 122, N-(2-{5-[3-chloro-4-(methyloxy)phenyl]-3-pyridin-4-yl-1H-1,2,4-triazol-1-yl}ethyl)-N-cyclopentyl-N′-[2-(trifluoromethyl)phenyl]urea] | ≥ 10 µM
19 | COc1ccc(-c2nc(-c3ccncc3)n(CCN(C(=O)Cc3cccc4ccccc34)C3CCCC3)n2)cc1OC [Entry 42, N-(2-{3-[3,4-bis(methyloxy)phenyl]-5-pyridin-4-yl-1H-1,2,4-triazol-1-yl}ethyl)-N-cyclopentyl-2-naphthalen-1-ylacetamide] | 0.05 to 1 µM
20 | CCCCOc1ccc(NC(=O)N(CCn2nc(-c3ccncc3)nc2-c2ccc(OC)c(Cl)c2)C2CCCC2)cc1 [Entry 131, N′-[4-(butyloxy)phenyl]-N-(2-{5-[3-chloro-4-(methyloxy)phenyl]-3-pyridin-4-yl-1H-1,2,4-triazol-1-yl}ethyl)-N-cyclopentylurea] | ≥ 10 µM
21 | O=C(Cc1cccc2ccccc12)N(CCn1nc(-c2ccncc2)nc1C1CCNCC1)C1CCCC1 [Entry 60, N-cyclopentyl-2-naphthalen-1-yl-N-[2-(5-piperidin-4-yl-3-pyridin-4-yl-1H-1,2,4-triazol-1-yl)ethyl]acetamide] | < 0.05 µM
22 | Cc1nc(-c2ccncc2)nn1CCN(C(=O)Cc1cccc2ccccc12)C(C)C [Entry 177, N-(1-methylethyl)-N-[2-(5-methyl-3-pyridin-4-yl-1H-1,2,4-triazol-1-yl)ethyl]-2-naphthalen-1-ylacetamide] | < 0.05 µM
23 | COc1ccc(-c2nc(-c3ccncc3)nn2CCN(C(=O)Nc2cccc(SC)c2)C2CCCC2)cc1Cl [Entry 143, N-(2-{5-[3-chloro-4-(methyloxy)phenyl]-3-pyridin-4-yl-1H-1,2,4-triazol-1-yl}ethyl)-N-cyclopentyl-N′-[3-(methylthio)phenyl]urea] | ≥ 10 µM
24 | Cc1nc(-c2ccncc2)nn1CCN(CCN1CCCC1)C(=O)Cc1cccc2ccccc12 [Entry 169, N-[2-(5-methyl-3-pyridin-4-yl-1H-1,2,4-triazol-1-yl)ethyl]-2-naphthalen-1-yl-N-(2-pyrrolidin-1-ylethyl)acetamide] | ≥ 10 µM
25 | CCCCCCNC(=O)N(CCn1nc(-c2ccncc2)nc1-c1ccc(OC)c(Cl)c1)C1CCCC1 [Entry 89, N-(2-{5-[3-chloro-4-(methyloxy)phenyl]-3-pyridin-4-yl-1H-1,2,4-triazol-1-yl}ethyl)-N-cyclopentyl-N′-hexylurea] | ≥ 10 µM
26 | COc1ccc(-c2nc(-c3ccncc3)nn2CCN(C(=O)NCCc2ccccc2)C2CCCC2)cc1Cl [Entry 113, N-(2-{5-[3-chloro-4-(methyloxy)phenyl]-3-pyridin-4-yl-1H-1,2,4-triazol-1-yl}ethyl)-N-cyclopentyl-N′-(2-phenylethyl)urea] | ≥ 10 µM
27 | O=C(Cc1cccc2ccccc12)N(CCn1nc(-c2ccncc2)nc1-c1cc(Cl)cc(Cl)c1)C1CCCC1 [Entry 47, N-cyclopentyl-N-{2-[5-(3,5-dichlorophenyl)-3-pyridin-4-yl-1H-1,2,4-triazol-1-yl]ethyl}-2-naphthalen-1-ylacetamide] | < 0.05 µM
28 | Cc1nc(-c2ccnc(N[C@@H]3CCNC3)c2)nn1CCN(C(=O)Cc1cccc2ccccc12)C1CCCC1 [Entry 182, N-cyclopentyl-N-[2-(5-methyl-3-{2-[(3R)-pyrrolidin-3-ylamino]pyridin-4-yl}-1H-1,2,4-triazol-1-yl)ethyl]-2-naphthalen-1-ylacetamide] | 0.05 to 1 µM
29 | COc1ccc(-c2nc(-c3ccncc3)nn2CCN(C(=O)Cc2cccc3ccccc23)C2CCN(C)CC2)cc1Cl [Entry 81, N-(2-{5-[3-chloro-4-(methyloxy)phenyl]-3-pyridin-4-yl-1H-1,2,4-triazol-1-yl}ethyl)-N-(1-methylpiperidin-4-yl)-2-naphthalen-1-ylacetamide] | ≥ 10 µM
30 | COc1ccc(-c2nc(-c3ccncc3)nn2CCN(C(=O)Nc2cccc(Cl)c2C)C2CCCC2)cc1Cl [Entry 152, N-(2-{5-[3-chloro-4-(methyloxy)phenyl]-3-pyridin-4-yl-1H-1,2,4-triazol-1-yl}ethyl)-N′-(3-chloro-2-methylphenyl)-N-cyclopentylurea] | 0.05 to 1 µM
31 | COc1ccc(-c2nc(-c3ccccc3)nn2CC(=O)NC2CCCC2)cc1Cl [Entry 33, 2-{5-[3-chloro-4-(methyloxy)phenyl]-3-phenyl-1H-1,2,4-triazol-1-yl}-N-cyclopentylacetamide] | ≥ 10 µM
